Data taken from ChEMBL document CHEMBL6078630, “Design, synthesis, and bioactivity investigation of novel cyclic lipopeptide antibiotics targeting top-priority multidrug-resistant gram-negative bacteria” (Eur J Med Chem, 2024).
≈ marks a conversion by molar mass, not a printed value. Bridge positions count the residues as written; N and C are the ends. Square brackets hold non-standard residues; d marks the D form. Peptide text beside a SMILES is read from it. * marks the point of attachment. Heptanoyl(6-Me) = CC(C)CCCCC(=O)*; dNle = CCCC[C@@H](N)C(=O)O; X1 = CC[C@H](C)CCCCC(=O)*; dDab = NCC[C@@H](N)C(=O)O; Octanoyl = CCCCCCCC(=O)*; Orn = NCCC[C@H](N)C(=O)O; Dab = NCC[C@H](N)C(=O)O

Tests used:
Pseudomonas aeruginosa [1] = test: Antibacterial activity against Pseudomonas aeruginosa ATCC 27853 assessed as inhibition of bacterial growth incubated for 16 to 20 hrs by CLSI protocol based broth microdilution method; format: functional; conditions: time 16-20 hrs
Pseudomonas aeruginosa [2] = test: Antibacterial activity against carbapenem-resistant Pseudomonas aeruginosa clinical isolate 19-3 assessed as inhibition of bacterial growth incubated for 16 to 20 hrs by CLSI protocol based broth microdilution method; format: functional; conditions: time 16-20 hrs
Klebsiella pneumoniae [3] = test: Antibacterial activity against carbapenem-resistant Klebsiella pneumoniae ATCC BAA-1705 assessed as inhibition of bacterial growth incubated for 16 to 20 hrs by CLSI protocol based broth microdilution method; format: functional; conditions: time 16-20 hrs
Escherichia coli [4] = test: Antibacterial activity against carbapenem-resistant Escherichia coli ATCC BAA-2340 assessed as inhibition of bacterial growth incubated for 16 to 20 hrs by CLSI protocol based broth microdilution method; format: functional; conditions: time 16-20 hrs
Acinetobacter baumannii [5] = test: Antibacterial activity against Acinetobacter baumannii NCTC 13304 (OXA-27) assessed as inhibition of bacterial growth incubated for 16 to 20 hrs by CLSI protocol based broth microdilution method; format: functional; conditions: time 16-20 hrs
Klebsiella pneumoniae [6] = test: Antibacterial activity against carbapenem-resistant Klebsiella pneumoniae clinical isolate KPN+19-15 assessed as inhibition of bacterial growth incubated for 16 to 20 hrs by CLSI protocol based broth microdilution method; format: functional; conditions: time 16-20 hrs
Escherichia coli [7] = test: Antibacterial activity against Escherichia coli ATCC BAA-2523 assessed as inhibition of bacterial growth incubated for 16 to 20 hrs by CLSI protocol based broth microdilution method; format: functional; conditions: time 16-20 hrs
Acinetobacter baumannii [8] = test: Antibacterial activity against carbapenem-sensitive Acinetobacter baumannii clinical isolate 19-1 assessed as inhibition of bacterial growth incubated for 16 to 20 hrs by CLSI protocol based broth microdilution method; format: functional; conditions: time 16-20 hrs
[9] = Renal cytotoxicity against HK-2 cells incubated for 72 hrs by CCK8 assay; format: toxicity, cell-based; conditions: human

Structure (SMILES) | MIC (Pseudomonas aeruginosa [1]) | MIC (Pseudomonas aeruginosa [2]) | MIC (Klebsiella pneumoniae [3]) | MIC (Escherichia coli [4]) | MIC (Acinetobacter baumannii [5]) | MIC (Klebsiella pneumoniae [6]) | MIC (Escherichia coli [7]) | MIC (Acinetobacter baumannii [8]) | IC50 at 72 h [9]
CCCCCCCC(=O)N[C@@H](CCN)C(=O)N[C@H](C(=O)N[C@@H](CCN)C(=O)N[C@H]1CCNC(=O)[C@H]([C@@H](C)O)NC(=O)[C@H](CCN)NC(=O)[C@H](CCN)NC(=O)[C@H]([C@@H](C)O)NC(=O)[C@@H](Cc2ccccc2)NC(=O)[C@H](CCN)NC1=O)[C@@H](C)O (Octanoyl-[Dab]T[Dab][Dab][Dab][dF]T[Dab][Dab]T; lactam 4-C) | 0.5 mg/L (≈ 0.425 µM) | 0.5 mg/L (≈ 0.425 µM) | 0.5 mg/L (≈ 0.425 µM) | 0.06 mg/L (≈ 0.051 µM) | 0.25 mg/L (≈ 0.212 µM) | ≤ 0.03 mg/L | ≤ 0.03 mg/L | 0.5 mg/L (≈ 0.425 µM) | –
CCCCCCCC(=O)N[C@@H](CCN)C(=O)N[C@H](C(=O)N[C@@H](CCN)C(=O)N[C@H]1CCNC(=O)[C@H]([C@@H](C)O)NC(=O)[C@H](CCN)NC(=O)[C@H](CCN)NC(=O)[C@H]([C@@H](C)O)NC(=O)[C@@H](CC(C)C)NC(=O)[C@H](CCN)NC1=O)[C@@H](C)O (Octanoyl-[Dab]T[Dab][Dab][Dab][dL]T[Dab][Dab]T; lactam 4-C) [listing 1 of 2 here] | – | – | – | – | – | – | – | – | > 500 mg/L
CCCCCCCC(=O)N[C@@H](CCN)C(=O)N[C@H](C(=O)N[C@@H](CCN)C(=O)N[C@H]1CCNC(=O)[C@H]([C@@H](C)O)NC(=O)[C@H](CCN)NC(=O)[C@H](CCN)NC(=O)[C@H]([C@@H](C)O)NC(=O)[C@@H](CC(C)C)NC(=O)[C@H](CCN)NC1=O)[C@@H](C)O (Octanoyl-[Dab]T[Dab][Dab][Dab][dL]T[Dab][Dab]T; lactam 4-C) [listing 2 of 2 here] | 1 mg/L (≈ 0.875 µM) | 0.5 mg/L (≈ 0.437 µM) | 2 mg/L (≈ 1.75 µM) | 0.06 mg/L (≈ 0.0525 µM) | 1 mg/L (≈ 0.875 µM) | 0.25 mg/L (≈ 0.219 µM) | 0.25 mg/L (≈ 0.219 µM) | 1 mg/L (≈ 0.875 µM) | –
CCCCCCCC(=O)N[C@@H](CCN)C(=O)N[C@H](C(=O)N[C@@H](CCN)C(=O)N[C@H]1CCNC(=O)[C@H]([C@@H](C)O)NC(=O)[C@H](CCN)NC(=O)[C@H](CCN)NC(=O)[C@H]([C@@H](C)O)NC(=O)[C@@H](CCCC)NC(=O)[C@H](CCN)NC1=O)[C@@H](C)O (Octanoyl-[Dab]T[Dab][Dab][Dab][dNle]T[Dab][Dab]T; lactam 4-C) [listing 1 of 2 here] | – | – | – | – | – | – | – | – | > 500 mg/L
CCCCCCCC(=O)N[C@@H](CCN)C(=O)N[C@H](C(=O)N[C@@H](CCN)C(=O)N[C@H]1CCNC(=O)[C@H]([C@@H](C)O)NC(=O)[C@H](CCN)NC(=O)[C@H](CCN)NC(=O)[C@H]([C@@H](C)O)NC(=O)[C@@H](CCCC)NC(=O)[C@H](CCN)NC1=O)[C@@H](C)O (Octanoyl-[Dab]T[Dab][Dab][Dab][dNle]T[Dab][Dab]T; lactam 4-C) [listing 2 of 2 here] | 1 mg/L (≈ 0.875 µM) | 1 mg/L (≈ 0.875 µM) | 2 mg/L (≈ 1.75 µM) | 0.125 mg/L (≈ 0.109 µM) | 1 mg/L (≈ 0.875 µM) | 0.125 mg/L (≈ 0.109 µM) | 0.125 mg/L (≈ 0.109 µM) | 1 mg/L (≈ 0.875 µM) | –
CC[C@H](C)CCCCC(=O)N[C@@H](CCN)C(=O)N[C@H](C(=O)N[C@H](CCN)C(=O)N[C@H]1CCNC(=O)[C@H]([C@@H](C)O)NC(=O)[C@H](CCN)NC(=O)[C@H](CCN)NC(=O)[C@H]([C@@H](C)O)NC(=O)[C@@H](Cc2ccccc2)NC(=O)[C@H](CCN)NC1=O)[C@@H](C)O (X1-[Dab]T[dDab][Dab][Dab][dF]T[Dab][Dab]T; lactam 4-C) | 1 mg/L (≈ 0.839 µM) | 1 mg/L (≈ 0.839 µM) | ≤ 0.03 mg/L | ≤ 0.03 mg/L | ≤ 0.03 mg/L | ≤ 0.03 mg/L | ≤ 0.03 mg/L | ≤ 0.03 mg/L | 371 mg/L (≈ 311 µM)
CC(C)CCCCC(=O)N[C@@H](CCN)C(=O)N[C@H](C(=O)N[C@@H](CCN)C(=O)N[C@H]1CCNC(=O)[C@H]([C@@H](C)O)NC(=O)[C@H](CCN)NC(=O)[C@H](CCN)NC(=O)[C@H]([C@@H](C)O)NC(=O)[C@@H](Cc2ccccc2)NC(=O)[C@H](CCN)NC1=O)[C@@H](C)O ({Heptanoyl(6-Me)}-[Dab]T[Dab][Dab][Dab][dF]T[Dab][Dab]T; lactam 4-C) [listing 1 of 2 here] | – | – | – | – | – | – | – | – | > 500 mg/L
CC(C)CCCCC(=O)N[C@@H](CCN)C(=O)N[C@H](C(=O)N[C@@H](CCN)C(=O)N[C@H]1CCNC(=O)[C@H]([C@@H](C)O)NC(=O)[C@H](CCN)NC(=O)[C@H](CCN)NC(=O)[C@H]([C@@H](C)O)NC(=O)[C@@H](Cc2ccccc2)NC(=O)[C@H](CCN)NC1=O)[C@@H](C)O ({Heptanoyl(6-Me)}-[Dab]T[Dab][Dab][Dab][dF]T[Dab][Dab]T; lactam 4-C) [listing 2 of 2 here] | 1 mg/L (≈ 0.849 µM) | 1 mg/L (≈ 0.849 µM) | 0.5 mg/L (≈ 0.425 µM) | ≤ 0.03 mg/L | 0.25 mg/L (≈ 0.212 µM) | ≤ 0.03 mg/L | 0.06 mg/L (≈ 0.051 µM) | 0.5 mg/L (≈ 0.425 µM) | –
CC(C)CCCCC(=O)N[C@@H](CCN)C(=O)N[C@H](C(=O)N[C@@H](CCCN)C(=O)N[C@H]1CCNC(=O)[C@H]([C@@H](C)O)NC(=O)[C@H](CCN)NC(=O)[C@H](CCN)NC(=O)[C@H]([C@@H](C)O)NC(=O)[C@@H](Cc2ccccc2)NC(=O)[C@H](CCN)NC1=O)[C@@H](C)O ({Heptanoyl(6-Me)}-[Dab]T[Orn][Dab][Dab][dF]T[Dab][Dab]T; lactam 4-C) | ≤ 0.03 mg/L | 0.25 mg/L (≈ 0.21 µM) | ≤ 0.03 mg/L | ≤ 0.03 mg/L | 0.06 mg/L (≈ 0.0504 µM) | ≤ 0.03 mg/L | ≤ 0.03 mg/L | 0.125 mg/L (≈ 0.105 µM) | > 500 mg/L
